Values quoted from earlier work as cited in article PMC10994420, “Development of peptides for targeting cell ablation agents concurrently to the Sertoli and Leydig cell populations of the testes: An approach to non-surgical sterilization” (PLOS ONE, 2024).
Numbered stars: 1 amine (or outer) side, 2 acyl side, 3 side chain; on linkers, the order of the positions; unused ones are H or OH. Square brackets hold non-standard residues; d marks the D form. Peptide text beside a SMILES is read from it. * marks the point of attachment. Dolaproine = CO[C@@H]([C@@H]1CCCN1)[C@@H](C)C(=O)O; Hexanoyl(6-maleimido) = O=C1C=CC(=O)N1CCCCCC(=O)*; Dil = CC[C@H](C)[C@H](NC)[C@@H](CC(=O)O)OC; PABC = O=C(OCc1ccc(N[*:1])cc1)[*:2]; X1 = C[C@@H](N*)[C@@H](O)c1ccccc1; Cit = NC(=O)NCCC[C@H](N)C(=O)O; NMeV = CN[C@H](C(=O)O)C(C)C

How the values were obtained:
[1] = maleimide form with valine-citrulline linker; ref https://www.chemsrc.com/en/cas/646502-53-6_1197872.html
Description: Among these criteria, aqueous solubility was considered an important factor, both in the context of reaction with Auristatin and for use of biocompatible solvents for in vivo delivery.

[2] = no reference given
Experimental: Four treatment groups of ten 55-day-old male Swiss male CD1 mice were injected intraperitoneally. Treatments included: (1) […] vehicle control (30% Solutol (Kolliphor)/PBS), (2) 300 μL/30 g 14.5 mM FSH2Menadione, (3) 100 μL/30g 425 μM LH2Aur, or (4) 300 μL/30 g 14.5 mM FSH2Menadione plus 100 μL/30g 425 μM LH2Aur (consecutive injections, 16 h apart). The dose of 1 mg/kg of conjugated Auristatin was determined with reference to the work by Doronina et al., who determined the maximum tolerated dose (MTD) of conjugated Auristatin for mice is 1.1 mg/kg. Solubility of the FSH2Menadione was ...

Compound	aqueous solubility [1]	logP value [1]	MTD [2] [mg/kg]
CC[C@H](C)[C@@H]([C@@H](CC(=O)N1CCC[C@H]1[C@H](OC)[C@@H](C)C(=O)N[C@H](C)[C@@H](O)c1ccccc1)OC)N(C)C(=O)[C@@H](NC(=O)[C@H](C(C)C)N(C)C(=O)OCc1ccc(NC(=O)[C@H](CCCNC(N)=O)NC(=O)[C@@H](NC(=O)CCCCCN2C(=O)C=CC2=O)C(C)C)cc1)C(C)C [Auristatin, maleimide-valine-citrulline- para-aminobenzyloxycarbonyl -monomethyl-Auristatin E] ({Hexanoyl(6-maleimido)}-V[Cit][PABC][NMeV]V[Dil][Dolaproine]-X1)	very poor	6.04	
CC1=CC(=O)c2ccccc2C1=O [menadione, 2-methyl-1,4-naphthoquinone]			830
